For assay [1], the target named is T1, Progesterone receptor (Homo sapiens, UniProt P06401).
T1 sequence (P06401 whole entry): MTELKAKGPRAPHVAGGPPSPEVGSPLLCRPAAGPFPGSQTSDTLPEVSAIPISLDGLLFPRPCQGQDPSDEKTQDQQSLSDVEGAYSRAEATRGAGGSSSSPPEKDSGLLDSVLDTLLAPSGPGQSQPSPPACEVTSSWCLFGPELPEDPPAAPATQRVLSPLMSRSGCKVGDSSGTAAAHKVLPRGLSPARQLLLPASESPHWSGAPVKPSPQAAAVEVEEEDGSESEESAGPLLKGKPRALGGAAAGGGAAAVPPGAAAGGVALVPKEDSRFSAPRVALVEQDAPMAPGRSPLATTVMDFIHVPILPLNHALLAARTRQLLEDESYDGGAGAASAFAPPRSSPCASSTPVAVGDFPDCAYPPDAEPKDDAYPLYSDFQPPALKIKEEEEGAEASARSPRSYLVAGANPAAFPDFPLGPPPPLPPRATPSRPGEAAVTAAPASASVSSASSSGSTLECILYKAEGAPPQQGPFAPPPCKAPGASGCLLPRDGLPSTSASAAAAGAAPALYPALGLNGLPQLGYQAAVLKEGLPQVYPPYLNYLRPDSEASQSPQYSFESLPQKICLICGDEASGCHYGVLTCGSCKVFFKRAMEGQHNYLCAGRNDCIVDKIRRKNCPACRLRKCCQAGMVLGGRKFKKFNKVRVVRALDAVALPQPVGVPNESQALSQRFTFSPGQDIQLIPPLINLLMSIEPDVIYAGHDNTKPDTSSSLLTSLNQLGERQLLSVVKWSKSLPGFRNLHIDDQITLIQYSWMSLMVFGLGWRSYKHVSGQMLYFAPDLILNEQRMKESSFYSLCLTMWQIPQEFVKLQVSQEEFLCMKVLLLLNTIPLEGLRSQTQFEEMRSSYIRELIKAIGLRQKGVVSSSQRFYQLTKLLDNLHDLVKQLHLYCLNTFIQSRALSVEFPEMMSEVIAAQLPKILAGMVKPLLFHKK

The target of assay [2] is T2, Alpha-2A adrenergic receptor (Homo sapiens, UniProt P08913).
T2 sequence (P08913 whole entry): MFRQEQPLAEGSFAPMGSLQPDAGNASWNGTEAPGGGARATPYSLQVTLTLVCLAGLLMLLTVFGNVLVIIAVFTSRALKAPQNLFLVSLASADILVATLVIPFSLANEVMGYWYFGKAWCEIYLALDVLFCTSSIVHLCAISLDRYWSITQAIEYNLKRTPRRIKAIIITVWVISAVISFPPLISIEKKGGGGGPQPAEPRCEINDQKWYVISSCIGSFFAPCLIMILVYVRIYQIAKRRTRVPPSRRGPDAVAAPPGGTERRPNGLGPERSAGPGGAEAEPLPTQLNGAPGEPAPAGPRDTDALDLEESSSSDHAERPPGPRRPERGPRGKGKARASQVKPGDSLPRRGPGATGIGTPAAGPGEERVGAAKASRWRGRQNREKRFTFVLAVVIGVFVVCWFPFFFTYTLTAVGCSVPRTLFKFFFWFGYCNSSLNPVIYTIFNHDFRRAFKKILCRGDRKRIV

Assay [3] addresses Beta-2 adrenergic receptor (Homo sapiens, UniProt P07550). In kind it is functional, cell-based.
Assay [4] deals with D(1A) dopamine receptor (Homo sapiens, UniProt P21728).
Sequence of D(1A) dopamine receptor (P21728 whole entry): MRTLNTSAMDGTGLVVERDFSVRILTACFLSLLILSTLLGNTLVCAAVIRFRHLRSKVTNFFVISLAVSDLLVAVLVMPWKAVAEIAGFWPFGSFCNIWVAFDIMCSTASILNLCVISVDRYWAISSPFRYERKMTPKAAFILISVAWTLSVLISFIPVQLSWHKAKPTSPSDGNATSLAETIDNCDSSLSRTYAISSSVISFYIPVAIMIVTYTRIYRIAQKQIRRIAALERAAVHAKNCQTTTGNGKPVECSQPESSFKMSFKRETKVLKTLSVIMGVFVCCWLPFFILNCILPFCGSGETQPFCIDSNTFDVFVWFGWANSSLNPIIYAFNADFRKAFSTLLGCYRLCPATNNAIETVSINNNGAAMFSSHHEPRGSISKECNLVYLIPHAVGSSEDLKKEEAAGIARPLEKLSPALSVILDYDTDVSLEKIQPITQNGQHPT
Assay [5] deals with 5-hydroxytryptamine receptor 2B (Homo sapiens, UniProt P41595).
Sequence of 5-hydroxytryptamine receptor 2B (P41595 whole entry): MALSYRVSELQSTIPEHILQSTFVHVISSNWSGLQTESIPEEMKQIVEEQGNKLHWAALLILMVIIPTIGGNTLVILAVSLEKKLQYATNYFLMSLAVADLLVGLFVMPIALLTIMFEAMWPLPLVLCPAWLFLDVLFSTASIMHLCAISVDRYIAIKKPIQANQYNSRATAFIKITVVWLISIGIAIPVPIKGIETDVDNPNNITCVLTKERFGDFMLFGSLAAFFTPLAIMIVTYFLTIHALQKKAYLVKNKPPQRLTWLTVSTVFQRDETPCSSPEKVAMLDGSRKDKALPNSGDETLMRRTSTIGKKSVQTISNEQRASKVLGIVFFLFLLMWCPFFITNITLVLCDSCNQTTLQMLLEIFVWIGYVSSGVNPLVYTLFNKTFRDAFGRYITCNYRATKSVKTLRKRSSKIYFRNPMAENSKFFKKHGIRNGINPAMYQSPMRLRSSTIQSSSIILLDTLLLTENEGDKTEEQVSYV
The target in assay [6] is T3, 5-hydroxytryptamine receptor 1A (Homo sapiens, UniProt P08908).
T3 sequence (P08908 whole entry): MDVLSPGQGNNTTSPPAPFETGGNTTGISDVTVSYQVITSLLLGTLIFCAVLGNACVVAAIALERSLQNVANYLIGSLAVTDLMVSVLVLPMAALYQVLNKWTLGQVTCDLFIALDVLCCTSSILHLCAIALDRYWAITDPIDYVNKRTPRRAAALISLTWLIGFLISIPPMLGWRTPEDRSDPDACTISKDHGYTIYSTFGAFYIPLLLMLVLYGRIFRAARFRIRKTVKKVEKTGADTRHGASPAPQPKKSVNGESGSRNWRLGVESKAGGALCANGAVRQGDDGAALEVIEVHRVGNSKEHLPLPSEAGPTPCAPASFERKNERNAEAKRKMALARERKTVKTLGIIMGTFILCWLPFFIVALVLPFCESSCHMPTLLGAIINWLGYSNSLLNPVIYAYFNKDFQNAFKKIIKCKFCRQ

For assay [7], the target named is 5-hydroxytryptamine receptor 2A (Homo sapiens, UniProt P28223).
Sequence of 5-hydroxytryptamine receptor 2A (P28223 whole entry): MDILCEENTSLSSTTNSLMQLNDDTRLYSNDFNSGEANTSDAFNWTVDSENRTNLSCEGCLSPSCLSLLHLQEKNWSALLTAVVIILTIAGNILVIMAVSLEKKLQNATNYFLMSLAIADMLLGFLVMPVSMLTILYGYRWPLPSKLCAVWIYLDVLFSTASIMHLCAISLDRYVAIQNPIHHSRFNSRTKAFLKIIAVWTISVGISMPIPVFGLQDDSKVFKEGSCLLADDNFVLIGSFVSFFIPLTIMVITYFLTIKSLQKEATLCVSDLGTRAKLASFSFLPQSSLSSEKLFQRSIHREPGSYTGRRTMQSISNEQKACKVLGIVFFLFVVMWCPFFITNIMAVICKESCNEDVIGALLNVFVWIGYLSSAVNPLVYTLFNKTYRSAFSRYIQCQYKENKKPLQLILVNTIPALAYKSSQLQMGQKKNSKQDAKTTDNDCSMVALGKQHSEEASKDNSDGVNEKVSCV
In assay [8] the target is T4, Androgen receptor (Rattus norvegicus, UniProt P15207).
T4 sequence (P15207 whole entry): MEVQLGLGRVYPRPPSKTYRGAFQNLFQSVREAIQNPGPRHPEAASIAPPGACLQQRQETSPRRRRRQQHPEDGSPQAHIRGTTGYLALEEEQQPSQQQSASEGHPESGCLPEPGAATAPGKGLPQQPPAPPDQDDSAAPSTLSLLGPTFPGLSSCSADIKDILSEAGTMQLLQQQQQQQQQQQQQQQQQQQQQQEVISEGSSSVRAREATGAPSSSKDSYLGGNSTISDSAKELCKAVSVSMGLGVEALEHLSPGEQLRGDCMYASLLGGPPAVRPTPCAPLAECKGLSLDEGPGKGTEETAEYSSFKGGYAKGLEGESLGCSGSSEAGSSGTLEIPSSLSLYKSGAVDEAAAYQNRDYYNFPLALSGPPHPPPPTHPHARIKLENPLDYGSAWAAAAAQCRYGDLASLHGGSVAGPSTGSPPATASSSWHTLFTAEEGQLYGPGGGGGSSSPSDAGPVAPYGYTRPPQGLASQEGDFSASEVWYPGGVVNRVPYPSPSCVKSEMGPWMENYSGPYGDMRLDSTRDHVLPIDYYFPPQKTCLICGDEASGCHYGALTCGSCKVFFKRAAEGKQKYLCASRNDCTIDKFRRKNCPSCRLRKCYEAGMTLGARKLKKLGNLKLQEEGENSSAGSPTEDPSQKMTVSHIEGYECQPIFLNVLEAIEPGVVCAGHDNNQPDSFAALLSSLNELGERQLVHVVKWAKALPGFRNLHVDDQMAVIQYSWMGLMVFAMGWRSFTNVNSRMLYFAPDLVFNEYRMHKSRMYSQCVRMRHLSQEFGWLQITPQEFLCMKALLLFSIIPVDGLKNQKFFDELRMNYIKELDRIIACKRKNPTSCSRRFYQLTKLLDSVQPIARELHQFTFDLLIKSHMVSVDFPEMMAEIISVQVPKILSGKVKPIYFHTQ
The format is functional.
Further: assay procedure not described here.

Sequence of Beta-2 adrenergic receptor (P07550 whole entry): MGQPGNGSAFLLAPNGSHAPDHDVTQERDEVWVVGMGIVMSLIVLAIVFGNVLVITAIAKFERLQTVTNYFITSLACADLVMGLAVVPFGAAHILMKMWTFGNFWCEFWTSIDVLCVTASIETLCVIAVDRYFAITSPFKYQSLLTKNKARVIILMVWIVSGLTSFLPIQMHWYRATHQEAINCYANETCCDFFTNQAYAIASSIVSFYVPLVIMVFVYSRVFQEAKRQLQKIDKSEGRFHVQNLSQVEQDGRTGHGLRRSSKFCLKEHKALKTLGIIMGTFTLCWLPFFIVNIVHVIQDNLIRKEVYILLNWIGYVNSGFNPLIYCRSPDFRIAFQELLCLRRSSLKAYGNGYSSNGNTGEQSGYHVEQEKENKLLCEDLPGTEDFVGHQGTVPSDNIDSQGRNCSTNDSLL

`CNS(=O)(=O)Cc1ccc2[nH]cc(CCN(C)C)c2c1`: the AC50 in assay [1] is > 30 µM; in assay [2], > 10 µM; in assay [3], > 30 µM; in assay [4], > 10 µM; in assay [5], 14 µM.
In turn, `COc1ccccc1N1CCN(CCCNc2cc(=O)n(C)c(=O)n2C)CC1` displayed an AC50 in assay [6] of 0.492 µM.
With `NCC(=O)CCC(=O)O` [AMINOLEVULINIC ACID], in assay [3], the AC50 is > 30 µM.
On to `CO/N=C(\C(=O)N[C@@H]1C(=O)N2C(C(=O)O)=C(CSc3nnnn3C)CS[C@H]12)c1csc(N)n1` [CEFMENOXIME], for which, in assay [3], the AC50 is > 30 µM.
Same read-out and setting: as for `CCN1CCN(C(=O)N[C@@H](C(=O)N[C@@H]2C(=O)N3C(C(=O)O)=C(CSc4nnnn4C)CS[C@H]23)c2ccc(O)cc2)C(=O)C1=O` [CEFOPERAZONE], the figure is > 30 µM.
On to `COc1ccc2c3c1O[C@H]1[C@@H](O)C=C[C@H]4[C@@H](C2)N(C)CC[C@@]341` [CODEINE], for which the AC50 in assay [1] was > 30 µM; in assay [2], > 10 µM; in assay [4], > 10 µM; in assay [5], > 10 µM; in assay [7], > 10 µM; in assay [6], > 10 µM.
Turning to `C#C[C@]1(O)CC[C@H]2[C@@H]3CCC4=Cc5oncc5C[C@]4(C)[C@H]3CC[C@@]21C` [DANAZOL], in assay [3], the AC50 was > 30 µM.
On the same count and under the same terms, in the case of `CC1(C)O[C@@H]2C[C@H]3[C@@H]4CCC5=CC(=O)C=C[C@]5(C)[C@H]4[C@@H](O)C[C@]3(C)[C@]2(C(=O)CO)O1` [DESONIDE] it was > 30 µM.
As for `CCCCc1ncc(/C=C(\Cc2cccs2)C(=O)O)n1Cc1ccc(C(=O)O)cc1` [EPROSARTAN], the AC50 in assay [1] was > 30 µM; in assay [2], > 10 µM; in assay [3] it was > 30 µM; in assay [4] it was > 10 µM; in assay [5] it was > 10 µM; in assay [7], > 10 µM. Further, in assay [6], the AC50 is > 10 µM.
In assay [5], `CCCCCCOc1ccccc1C(N)=O` [EXALAMIDE] yielded an AC50 of 0.27 µM.
Turning to `COc1ccc(CCN(C)CCCC(C#N)(c2cc(OC)c(OC)c(OC)c2)C(C)C)cc1OC` (stereo not drawn) [GALLOPAMIL], the AC50 in assay [3] was > 30 µM; in assay [5], 0.0819 µM.
For the compound `CC(C)C(=O)c1c(C(C)C)nn2ccccc12` [IBUDILAST], the AC50 in assay [3] was > 30 µM.
`CC(C)Cn1cnc2c(N)nc3ccccc3c21` [IMIQUIMOD]: the AC50 was > 30 µM in assay [1] and > 10 µM in assay [6].
Consider `CC(C(=O)O)c1ccc(N2Cc3ccccc3C2=O)cc1` (stereo not drawn) [INDOPROFEN], for which the results for the AC50 in assay [4] and in assay [7] were > 30 µM and > 10 µM, respectively.
As to `CC(C)(C)c1cc(C(C)(C)C)c(NC(=O)c2c[nH]c3ccccc3c2=O)cc1O` [IVACAFTOR], the AC50 in assay [1] was > 30 µM; in assay [2] it was > 10 µM; in assay [4], > 10 µM; in assay [5] it was > 10 µM; in assay [7], > 10 µM; in assay [6], > 10 µM.
Regarding `C[C@H](N)[C@H](O)c1cccc(O)c1` [METARAMINOL], the AC50 in assay [5] is > 30 µM; in assay [7], > 10 µM.
Turning to `CCC1(CC)C(=O)NCC(C)C1=O` (stereo not drawn) [METHYPRYLON], the concentration at half-maximal activity (AC50) in assay [3] and in assay [8] was > 30 µM each time.
With `CCOC(=O)[N-]c1cn(N2CCOCC2)n[o+]1` [MOLSIDOMINE], the AC50 in assay [3] is > 30 µM.
In turn, `OC(CNCC(O)C1CCc2cc(F)ccc2O1)C1CCc2cc(F)ccc2O1` (stereo not drawn) [NEBIVOLOL] displayed an AC50 in assay [6] of 0.14 µM.
`CCCc1nc(C(C)(C)O)c(C(=O)OCc2oc(=O)oc2C)n1Cc1ccc(-c2ccccc2-c2nnn[nH]2)cc1` [OLMESARTAN MEDOXOMIL]: the AC50 in assay [1] is > 30 µM; in assay [2] it was > 10 µM; in assay [4] it was > 10 µM; in assay [5], > 10 µM; in assay [7] it was > 10 µM; in assay [6] it was > 10 µM.
Take `N#Cc1ccc([C@H]2CCc3cncn32)c(F)c1` [OSILODROSTAT]: the AC50 in assay [2], in assay [4], in assay [5] and in assay [6] was > 10 µM throughout.
Turning to `CC[C@@H]1C(=O)OC[C@@H]1Cc1cncn1C` [PILOCARPINE], the AC50 is > 30 µM in assay [1]; > 10 µM in assay [2]; > 30 µM in assay [3]; > 10 µM in assay [5]; 4.72 µM in assay [7]; > 10 µM in assay [6].
Consider `CN1CCC(=C2c3ccccc3CCc3sccc32)CC1` [PIZOTYLINE], for which the AC50 in assay [2] was 0.577 µM; in assay [3], > 30 µM; in assay [7], 0.0002 µM; in assay [6] it was 0.338 µM.
As to `CCCN(CCC)C(=O)C(CCC(=O)O)NC(=O)c1ccccc1` (stereo not drawn) [PROGLUMIDE], the AC50 was > 30 µM in assay [1]; > 10 µM in assay [2]; > 10 µM in assay [4]; > 10 µM in assay [5]; > 10 µM in assay [6].
In the case of `C=CCC1(C(C)CC)C(=O)NC(=O)NC1=O` (stereo not drawn) [TALBUTAL], the AC50 in assay [7] was > 10 µM.
Turning to `C/C(O)=C(\C#N)C(=O)Nc1ccc(C(F)(F)F)cc1` [TERIFLUNOMIDE], the AC50 in assay [3] and in assay [8] was > 30 µM in each case.
For the compound `CN1CCN(CC/C=C2/c3ccccc3Sc3ccc(S(=O)(=O)N(C)C)cc32)CC1` [THIOTHIXENE], the half-maximal activity concentration (AC50) is > 30 µM in assay [1], 0.755 µM in assay [2], 0.0774 µM in assay [4] and 0.857 µM in assay [5].
In the case of `COc1cc2c(N)nc(N3CCN(C(=O)OCC(C)(C)O)CC3)nc2c(OC)c1OC` [TRIMAZOSIN], the results for the AC50 in assay [3] and in assay [8] were > 30 µM and 17 µM, respectively.

Source of the values: ChEMBL document CHEMBL5291721, “A preclinical secondary pharmacology resource illuminates target-adverse drug reaction associations of marketed drugs” (Nat Commun, 2023).
